Laboratory results from patent US20140038884A1, “ANTIVIRAL PEPTIDES” (priority 2011, published 2014).
Read-outs that look alike come from different tables or passages of the source. Ends that are not written are not given here.

Key:
[1] = Isoelectric point (Ip) of the peptides; type: physicochemical
[2] = test system: HIV-1; details: for influence on the expression level of Ag p24: subfragments containing the GGNK sequence
[3] = test system: HIV strain IIIB; assay: In vitro exogenous infection of healthy-donor PBMCs with HIV strain IIIB, p24 ELISA
[4] = test system: HIV; assay: Peptide stability, duration of effect on HIV replication in in vitro assays; type: cell-based
Procedure: Current drugs in use for the therapy against HIV infections and AIDS, like e.g. the HAART mixture, are administered in daily doses, whereas the action of the peptides of SEQ ID NO 1, 2, and 3 in in vitro assays highlights a duration of the effect on HIV replication of at least four days.
The effect was verified in two in vitro experimental protocols envisaging: • a treatment of the cells with the virus (adsorption phase), washing, inoculation of the peptide in culture and analysis of viral replication over time; • exposure of the cells to the peptide, adsorption of the cells to the virus, washing, and analysis of viral replication over time.

[5] = test system: HIV strain BaL; assay: In vitro exogenous infection of healthy-donor PBMCs with HIV strain BaL, p24 ELISA; details: at 12 days, 10 microg/ml, regardless of protocol, FIG. 2
[6] = test system: HIV-1 R5; details: ex vivo
[7] = test system: PE/CA PJ15 cells; assay: Cytotoxicity test, Neutral Red Uptake (NRU) method; type: cell-based; details: 50 microM, +24 and +48 hours from administration
Procedure: FIG. 3 (a, b, c). Cytotoxicity tests according to Neutral Red Uptake (NRU) method, performed on the three peptides: 1932 (SEQ ID NO 1), 2733 (SEQ ID NO 2) and 1413 (SEQ ID NO 3), at the two concentrations of 5 and 50 microM at +24 and +48 hours from administration. Therefore, concentrations near (5 microM) to or markedly higher (50 microM) than those employed for carrying out the ex-vivo and in vitro tests were used. Cells used are a tumour cell line denominated PE/CA PJ15. Positive control (denoted in the legends by ctrl+), used at a sublethal concentration of 10 microM, is a commercial proapoptotic peptide, Catalog #62206 (Anaspec-USA).
Treated cells were subjected to MTT assay at +24 and +48 hours from peptide inoculation. […] After a 3-hour incubation at 38° C., formazan crystals were solubilized with HCl solution in isopropanol (0.04 N, 200 μl) and the stained solution was measured by a microplate reader (Packard Spectracount™, Packard BioScience Company, Meriden U.S.A.) with a 570 nm filter. […] In the MTT citotoxicity test at +24 and +48 hours, averages of the values obtained by photometer reading of the data related to tested peptides were compared. […] From a determination of the amount of Neutral Red retained in the cells exposed thereto (in comparison with the control) the relative toxicity of the chemical substances at issue can be assessed. […]

[8] = test system: PE/CA PJ15 cells; assay: Cytotoxicity test, MTT method; type: cell-based; details: 15 microM, +48 hours from administration
Procedure: FIG. 4 (a, b, c). Cytotoxicity tests according to the MTT method (see protocols) performed on the three peptides: 1932 (SEQ ID NO 1); 2733 (SEQ ID NO 2) and 1413 (SEQ ID NO 3), and at three concentrations of […] at +24 and +48 hours from administration. There were used concentrations near (5 microM) to, or greater (15, 50 microM) than those used in the ex-vivo and in vitro tests, where average concentration of the three peptides is of about 3.65 microM. Cells used are a tumour cell line denominated PE/CA PJ15. Positive control (denoted in the legends by ctrl+), used at a sublethal concentration of 10 microM, is a commercial proapoptotic peptide, Catalog #62206 (Anaspec-USA).
Treated cells were subjected to MTT assay at +24 and +48 hours from peptide inoculation. […] After a 3-hour incubation at 38° C., formazan crystals were solubilized with HCl solution in isopropanol (0.04 N, 200 μl) and the stained solution was measured by a microplate reader (Packard Spectracount™, Packard BioScience Company, Meriden U.S.A.) with a 570 nm filter. […] In the MTT citotoxicity test at +24 and +48 hours, averages of the values obtained by photometer reading of the data related to tested peptides were compared. […]

Substance | Ip (isoelectric point) [1] | activities A) HIV-1 activation ex vivo, B) inhibitory activity, C) [2] | other results
GPPPQGGNKPQ (listed as Homo sapiens) [Peptide 1b] | 8.75 | exhibit none of the activities listed in points A), B) and C) | influence on the expression level of Ag p24 [2]: in no way influences the expression level of Ag p24
GPPPQGGNKPQGPPPPG (listed as Homo sapiens) [Peptide 1a] | 8.75 | exhibit none of the activities listed in points A), B) and C) | influence on the expression level of Ag p24 [2]: in no way influences the expression level of Ag p24
APPGARPLPGPPPPGPPPPGP (listed as Sus sp.) [Peptide 7] | 9.79 | do not exhibit any of the activities listed at A), B) and C) | 
RSPFFDL (listed as Sus sp.) [Peptide 5] | 5.84 | do not exhibit any of the activities listed at A), B) and C) | 
APPGARPPPGPPPPGPPPPGP (listed as Sus sp.) [Peptide 4] | 9.79 | do not exhibit any of the activities listed at A), B) and C) | 
GPPPQGGN (listed as Homo sapiens) [Peptide 1d] | 5.52 | do not exhibit any of the activities listed at A), B) and C) | 
RPPPGPPPPGPPPGP-OH [peptide 1413, RPPPGPPPPGPPPGP] | 9.75 |  | inhibition of viral replication ([3]; +8 days of culture, 10 μg/ml): relevant effect of inhibition of viral replication; virus replication over the time considered (p24 antigen) ([3]; peptide 10 microg/ml, FIG. 1): almost equal to zero; persistence of inhibitory effect ([3]; until day 12, FIG. 1): remained unaltered until day 12; inhibitory activity relative to Con1 ([2]; versus Con1 of U.S. Pat. No. 5,981,720, no direct comparison): 130 times; duration of the effect on HIV replication [4]: at least four; inhibition of viral replication [5]: effective in inhibiting viral replication; p24 values ([6]; after 5 days of culture, control cells 76 picograms/ml): 191 picograms/ml; p24 values ([6]; day 10, control cells 79 picograms/ml): 67 pg/mL
GPPPQGGNKPQGPPPG (listed as Homo sapiens) [Peptide 1c] | 8.75 | exhibit none of the activities listed in points A), B) and C) | influence on the expression level of Ag p24 [2]: in no way influences the expression level of Ag p24
APPGARPPPPPPPPADQPQQGP (Sus sp) [Peptide 6] | 5.88 | do not exhibit any of the activities listed at A), B) and C) | 
DKPKKKPPPPAGPPPPPPPPPGPPPPGP [peptide 2733] |  |  | toxicity with respect to the control (NRU) [7]: slightly more toxic with respect to the control
GPPPPGKPQ (listed as Homo sapiens) [Peptide 1e] | 8.75 | do not exhibit any of the activities listed at A), B) and C) | 
GPPPQGGNKPQGPPPPGKPQ [peptide 1932] |  |  | toxicity with respect to the control (NRU) [7]: slightly more toxic with respect to the control; toxicity with respect to the control (MTT) [8]: slightly toxic with respect to the control
